Data on 14 molecules can be found in patent US20060079550A1, “Amino acid derivatives useful for the treatment of alzheimer's disease” (priority 2001, published 2006).

pKi: −log10 of the molar value.

The target of the assay is aspartyl proteases, in particular, beta-secretase. Nature of the assay: Ki of the compounds listed in Tables 1 and 2 (no method described). In kind it is biochemical. As to conditions: Table 1, compounds of formula Ia, W is -(CH2)n-.
The pKi is −log10 of the Ki, conventionally taken in molar units. `CC(C)CN([C@@H](CCCCNC(=O)CSc1ccccc1)C(=O)O)S(=O)(=O)c1ccc([N+](=O)[O-])cc1` [Compound No. 154, Nα-isobutyl-Nα-(4-Tnitrobenzenesulfonyl)-Nε-phenylthioacetyl-L-lysine] showed a pKi of 7.99.

In turn, `Cc1ccc(S(=O)(=O)N(CC(C)C)[C@@H](CCCCNC(=O)CCc2ccccc2)C(=O)O)cc1` [compound 91] gave a pKi of 8.10.

`O=C(NCCCC[C@H](NS(=O)(=O)c1ccc(Br)cc1)C(=O)O)OCC1c2ccccc2-c2ccccc21` [Compound No. 66, Nα-(4-bromobenzenesulfonyl)-Nε-(9-fluorenylmethoxycarbonyl)-L-lysine]: the pKi was 5.72.

In the case of `CC(C)CN(C(CCCCNC(=O)C=Cc1ccccc1[N+](=O)[O-])C(=O)O)S(=O)(=O)c1ccc([N+](=O)[O-])cc1` [Compound No. 109, Nα-isobutyl-Nα-(4-nitrobeiizenesulfonyl)-Nε-(2-nitrocinnamoyl)-L-lysine], the pKi is less than 6.52.

`Nc1ccc(S(=O)(=O)NCCCC[C@H](NC(=O)OCC2c3ccccc3-c3ccccc32)C(=O)O)cc1` [Compound No. 52, Nε-(4-aminobenzenesulfonyl)-Nα-(9-fluorenylmethoxycarbonyl)-L-lysine] had a pKi of 5.17.

For the molecule `NC(=O)C(CCCCNS(=O)(=O)c1ccc(Br)cc1)NC(=O)OCC1c2ccccc2-c2ccccc21` [Compound No. 20, (2R,2S)-(9-fluorenylmethoxycarbonylamino)-6-(4-bromobenzenesulfonylamino)-1-hexanamide], the pKi was 4.64.

For the molecule “Nα-(9-fluorenylmethoxycarbonyl)-L-lysyl-Nα-(9-fluorenylmethoxy-carbonyl)-Nε-(2,4,6trimethylbenzenesulfonyl)-L-lysine [compound 26]”, the pKi is 4.20.

Take `COc1ccccc1/C=C/C(=O)NCCCC[C@@H](C(=O)O)N(CC(C)C)S(=O)(=O)c1ccc([N+](=O)[O-])cc1` [Compound No. 161, Nα-isobutyl-Nα-(4-nitrobenzenesulfonyl)-Nε-(trans-2-methoxycinnamoyl)-L-lysine]: the pKi is less than 6.52.

Consider `O=C(N[C@H](CO)CCCCNS(=O)(=O)c1ccc(Br)cc1)OCC1c2ccccc2-c2ccccc21` [Compound No. 22, (2S)-(9-fluorenylmethoxycarbonylamino)-6-(4-bromobenzenesulfonylamino)-1-hexanol], for which the pKi was less than 5.22.

In turn, `COC(=O)[C@H](CCCCNC(=O)OCC1c2ccccc2-c2ccccc21)N(CC(C)C)S(=O)(=O)c1ccc(C)cc1` [Compound No. 123, Nα-isobutyl-Nα-(4-methylbenzenesulfonyl)-Nε-(9-fluorenylmethoxycarbonyl)-L-lysine Methyl Ester] had a pKi of less than 6.52.

`CC1(C)[C@@H]2CC[C@@]1(CS(=O)(=O)NCCCC[C@H](NC(=O)OCC1c3ccccc3-c3ccccc31)C(=O)O)C(=O)C2` [Compound No. 35, Nε-(1S)-(10-camphorsulfonyl)-Nα-(9-fluorenylmethoxycarbonyl)-L-lysine]: the pKi is 4.48.

`Cc1ccc(S(=O)(=O)N(CC(C)C)[C@@H](CO)CCCCNC(=O)OCC2c3ccccc3-c3ccccc32)cc1` [Compound No. 124, (2R)-N-isobutyl-N-(4-methylbenzenesulfonylamino)-6-(9-fluorenylmethoxycarboxylamino)-1-hexanol] showed a pKi of 6.68.

For `O=C(N[C@@H](CCCCNS(=O)(=O)c1cccc2cccnc12)C(=O)O)OCC1c2ccccc2-c2ccccc21` [Compound No. 28, Nε-(8-quinolinesulfonyl)-Nα-(9-fluorenylmethoxycarbonyl)-L-lysine], the pKi was 4.82.

`CC(C)CN([C@@H](CCCCNC(=O)CCc1ccccc1)C(=O)O)S(=O)(=O)c1ccc([N+](=O)[O-])cc1` [Compound No. 94, Nα-isobutyl-Nα-(4-nitrobenzenesulfonyl)-Nε-dihydrocinnamoyl-L-lysine] had a pKi of 7.47.
